Measured values published in patent publication US20230038138A1, “COMBINATION THERAPY FOR TREATING CANCER” (ASTRAZENECA AB, priority 2020, published 2023).

System: NIH-OVCAR3 human ovarian tumor cells
Experiment: Efficacy in OVCAR3 xenograft model (tumor volume)
Type: in vivo, female CB.17 SCID mice
Conditions: dosed for 42 days
Description: OVCAR3: NIH-OVCAR3 human ovarian tumor cells (15×10^6/mouse) were implanted subcutaneously in female CB.17 SCID mice. The mice were randomized into groups of eight for efficacy, based on tumor volume and treated with either vehicle (0.5% HPMC/0.1% Tween 80), AZD5153; olaparib or the combination of AZD5153 and olaparib approximately 10 days after implantation. AZD5153 was formulated in 0.5% HPMC/0.1% Tween 80 and dosed orally for 42 days. Olaparib was formulated in 50% of 30% w/v HP-β-CD (Kleptose) in purified water and also dosed for 42 days. For the combination groups, olaparib was dosed daily for 42 days and AZD5153 was dosed either daily, for 7 days on and 14 days off for 2 cycles or 14 days on and 7 days off for 2 cycles. Tumor length and width was measured by caliper and tumor volume was calculated using the formula (length×width^2)*π/6 then reported as tumor volume.

Compound | efficacy (tumor volume) as monotherapy
COc1nnc2ccc(N3CCC(c4ccc(OCCN5CCN(C)C(=O)[C@H]5C)cc4)CC3)nn12 [AZD5153, (3R)-4-[2-[4-[1-(3-Methoxy-[1,2,4]triazolo[4,3-b]pyridazin-6-yl)-4-piperidyl]phenoxy]ethyl]-1,3-dimethyl-piperazin-2-one] | modestly efficacious
O=C(c1cc(Cc2n[nH]c(=O)c3ccccc23)ccc1F)N1CCN(C(=O)C2CC2)CC1 [olaparib, 4-[(3-{[4-(cyclopropylcarbonyl)piperazin-1-yl]carbonyl}-4-fluorophenyl)methyl]phthalazin-1(2H)-one] | modestly efficacious
